According to PubChem BioAssay (NCI):
Several values for one entry are separate records, joined by “and”; a condition that tells them apart may be missing. Equal entries are not always repeated.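 Interpolation was linear, between the two tested concentrations surrounding the appropriate level; five concentrations were tested over 48 hours in 96-well plates. GI50 = concentration required for 50% inhibition of growth. TGI: total growth inhibition.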

Assays:
Experiment in all cases: NCI tumour cell line growth inhibition, 48 h
OVCAR-5 ovarian = test system: OVCAR-5 ovarian
SK-MEL-2 melanoma = test system: SK-MEL-2 melanoma
SNB-19 CNS = test system: SNB-19 CNS
A549 NSCLC = test system: A549 NSCLC
SW-620 colon = test system: SW-620 colon
OVCAR-3 ovarian = test system: OVCAR-3 ovarian
IGROV1 ovarian = test system: IGROV1 ovarian
SK-MEL-5 melanoma = test system: SK-MEL-5 melanoma
U251 CNS = test system: U251 CNS
MDA-MB-231 breast = test system: MDA-MB-231 breast

Structure (SMILES) | GI50 (OVCAR-5 ovarian) | TGI (OVCAR-5 ovarian) | GI50 (SK-MEL-2 melanoma) | TGI (SK-MEL-2 melanoma) | GI50 (SNB-19 CNS) | TGI (SNB-19 CNS) | GI50 (A549 NSCLC) | TGI (A549 NSCLC) | GI50 (SW-620 colon) | TGI (SW-620 colon) | GI50 (OVCAR-3 ovarian) | TGI (OVCAR-3 ovarian) | GI50 (IGROV1 ovarian) | TGI (IGROV1 ovarian) | GI50 (SK-MEL-5 melanoma) | TGI (SK-MEL-5 melanoma) | GI50 (U251 CNS) | TGI (U251 CNS) | GI50 (MDA-MB-231 breast) | TGI (MDA-MB-231 breast)
C[C@@H]1O[C@@H](O[C@@H]2[C@@H](O)[C@H](OCCc3ccc(O)c(O)c3)O[C@H](CO)[C@H]2OC(=O)/C=C/c2ccc(O)c(O)c2)[C@H](O)[C@H](OC2OC[C@](O)(CO)[C@H]2O)[C@H]1O (stereo not given in full) | > 100 µM | > 100 µM | 52.6 µM | > 100 µM | > 100 µM | > 100 µM | > 100 µM | > 100 µM | 22.7 µM | 52.8 µM | 35 µM | > 100 µM | > 100 µM | > 100 µM | > 100 µM | > 100 µM | > 100 µM | > 100 µM | > 100 µM | > 100 µM
O=C(Nc1ccccc1OC(=O)c1ccccc1)c1ccccc1 | 51.5 µM | > 100 µM | 51.1 µM | > 100 µM | 25.1 µM | > 100 µM | 16.5 µM | > 100 µM | 4.25 µM | > 100 µM | 3.94 µM | 22.2 µM | 2.91 µM | 17.1 µM | 31.5 µM | > 100 µM | 6.35 µM | > 100 µM | 6.44 µM | > 100 µM
Nc1nc(N)c(CCCCc2ccccc2)c(N)n1 |  | > 100 µM |  | > 100 µM |  | > 100 µM |  | > 100 µM |  | > 100 µM |  | > 100 µM |  | > 100 µM |  | > 100 µM |  | > 100 µM |  | > 100 µM
Oc1cc(-n2cccn2)c(O)cc1-n1cccn1 |  | 83.3 µM |  | > 100 µM |  | > 82.3 µM |  | > 100 µM |  | 42.9 µM |  | 40 µM |  | > 75.9 µM |  | 58 µM |  | > 78.2 µM |  | 50.5 µM
COc1cccc(Oc2ccccc2NC(=O)CNC(=O)c2cccc3ccccc23)c1 | 1.13 µM | > 25 µM | 0.181 µM | > 25 µM | 0.617 µM | > 25 µM | 0.315 µM | > 25 µM | 0.164 µM | > 25 µM | 0.0999 µM | 1.25 µM | 1.04 µM | > 25 µM | 0.216 µM | 3.65 µM | 0.242 µM | > 25 µM | 0.776 µM | 7.68 µM
COc1cc2c(cc1F)C(c1ccccc1Cl)=Nc1c(n[nH]c1C)N2 | 6.76 µM | 22.8 µM | 1.08 µM | 17.3 µM | 8.69 µM | 22.3 µM | 0.938 µM | 23.9 µM | 0.486 µM | 20 µM | 0.597 µM | 21.6 µM | 1.54 µM | 18 µM | 0.328 µM | 6.51 µM | 0.583 µM | 18.3 µM | 2.12 µM | 16.9 µM
Fc1cccc(F)c1C(Nc1nncs1)Nc1nncs1 |  | > 100 µM |  | > 100 µM |  | > 100 µM |  | > 100 µM |  | > 100 µM |  | > 100 µM |  | > 100 µM |  | > 100 µM |  | > 100 µM |  | > 100 µM
COc1cc(C(=O)Nc2cc(O)c(CC=C(C)C)c(O)c2)cc2c1O[C@]1(C)CC[C@@H](O)C(C)(C)[C@H]1C2 | 3.44 µM | 37 µM | 0.143 µM | 8.21 µM | 4.64 µM | 61.6 µM | 1.05 µM | 24.6 µM | 1.15 µM | 11.9 µM | 3.83 µM | 62 µM | 7.06 µM | 46.3 µM | 1.13 µM | 3.51 µM | 0.0399 µM | 17.4 µM | 1.16 µM | 4.53 µM
Oc1c(-c2cc(C(F)(F)F)[nH]n2)cc(Cl)c(OCc2ccc(Cl)cc2)c1-c1ccc(Cl)c(C(F)(F)F)c1 | 2.01 µM | 7.91 µM | 0.36 µM | 2.35 µM | 0.565 µM | 6.62 µM | 1.24 µM | 6.39 µM | 0.298 µM | 4.15 µM | 0.315 µM | 5.5 µM | 0.965 µM | 5.93 µM | 0.265 µM | 0.941 µM | 0.5 µM | 5.76 µM | 0.46 µM | 3.07 µM
c1cc(N2CCN(c3ccc(C4=NCCCN4)cc3)CC2)ccc1C1=NCCCN1 | > 87.8 µM | > 100 µM | > 100 µM | > 100 µM | > 71.2 µM | > 100 µM | > 80.6 µM | > 100 µM | > 62.6 µM | > 100 µM | > 32.2 µM | > 100 µM | > 100 µM | > 100 µM | 21.2 µM | > 100 µM | > 74.6 µM | > 100 µM | > 62.6 µM | > 100 µM
O=C1c2c(Br)sc(Br)c2[C@@H](NC(=O)C(F)(F)F)C1Br (stereo not given in full) |  | 24.4 µM |  | 27.5 µM |  | 25.9 µM |  | 32.7 µM |  | > 21.9 µM |  | 9.99 µM |  | 10.5 µM |  | 7.88 µM |  | 9.08 µM |  | 6.06 µM
CC(CO)(Nc1ccc([N+](=O)[O-])cc1[N+](=O)[O-])C(=O)O (stereo not given) |  | 89 µM |  | 55.4 µM |  | > 100 µM |  | > 100 µM |  | 33.4 µM |  | 42 µM |  | 53.7 µM |  | 44.5 µM |  | 49.2 µM |  | > 100 µM
COc1ccc(/C=C(/C)[N+](=O)[O-])cc1OC | 4.12 µM and 5 µM | 12.4 µM and 16.1 µM | 2.39 µM and 1.81 µM | 4.9 µM and 4 µM | 6.82 µM and 3.16 µM | 20 µM and 12.6 µM | 6.05 µM and 4.13 µM | 19.7 µM and 17.7 µM | 1.56 µM and 1.1 µM | 3.04 µM and 2.7 µM | 1.89 µM and 1.79 µM | 3.35 µM and 3.44 µM | 2.79 µM and 2.26 µM | 7.75 µM and 5.68 µM | 1.71 µM and 1.9 µM | 3.09 µM and 3.43 µM | 2.3 µM and 1.67 µM | 6.14 µM and 3.14 µM | 1.97 µM and 2.38 µM | 4.26 µM and 5.02 µM
